38 compounds from patent US8933079B2, “Pyridone and pyridazinone derivatives as anti-obesity agents” (Boehringer Ingelheim International GmbH, priority 2012, dated 2015) can be followed below.

Sequence of hMCH-1R (Q99705 whole entry): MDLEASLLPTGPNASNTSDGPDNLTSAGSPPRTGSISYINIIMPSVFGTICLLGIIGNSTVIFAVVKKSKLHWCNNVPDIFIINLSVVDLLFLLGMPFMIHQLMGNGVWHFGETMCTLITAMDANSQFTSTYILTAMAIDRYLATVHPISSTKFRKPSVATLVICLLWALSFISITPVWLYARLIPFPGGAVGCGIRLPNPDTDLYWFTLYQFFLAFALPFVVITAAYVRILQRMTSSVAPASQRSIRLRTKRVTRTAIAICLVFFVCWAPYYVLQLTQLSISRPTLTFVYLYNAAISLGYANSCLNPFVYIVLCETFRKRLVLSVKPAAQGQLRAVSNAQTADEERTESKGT

For the first assay, the target named is hMCH-1R (Homo sapiens (Human), UniProt Q99705). Kind of assay: MCH-1 receptor binding test (125I-MCH binding to hMCH-1R transfected cell membranes). To be noted: 125I-MCH on hMCH-1R membranes; read-out: KD value of the radioligand. The protocol:
Res Commun. […] After the incubation the reaction is filtered using a cell harvester through 0.5% PEI treated fibreglass filters (GF/B, Unifilter Packard). The membrane-bound radioactivity retained on the filter is then determined after the addition of scintillator substance (Packard Microscint 20) in a measuring device (TopCount of Packard). […] The analysis of the concentration binding curve is carried out on the assumption of one receptor binding site.
What is called Kd is the concentration at which binding is half-saturated. Consider `CSCC[C@@H]1NC(=O)[C@@H](NC(=O)[C@H](CCCNC(=N)N)NC(=O)[C@H](CC(C)C)NC(=O)[C@H](CCSC)NC(=O)[C@H](CC(=O)O)NC(=O)[C@H](Cc2ccccc2)NC(=O)[C@@H](N)CC(=O)O)CSSC[C@@H](C(=O)N[C@@H](Cc2c[nH]c3ccccc23)C(=O)N[C@@H](CCC(N)=O)C(=O)N[C@H](C(=O)O)C(C)C)NC(=O)[C@@H]2CCCN2C(=O)[C@H](CCCNC(=N)N)NC(=O)[C@H](Cc2ccc(O)c(I)c2)NC(=O)[C@H](C(C)C)NC(=O)[C@H](CCCNC(=N)N)NC(=O)CNC(=O)[C@H](CC(C)C)NC1=O` [^125I-MCH, reference compound], for which the Kd amounted to 0.156 nM.

Staying with this assay, now noted: competition with 100 pM 125I-MCH, membranes of CHO/Galpha16 cells stably transfected with hMCH-1R.
As a reminder, the IC50 is the concentration that inhibits the measured activity by half. For the compound `COc1ccc(COc2cnn(CC(=O)c3ccc(C(C)N(C)C)cc3C)c(=O)c2)nc1` (centres unmarked) [Example 10.1, 2-{2-[4-(1-Dimethylamino-ethyl)-2-methyl-phenyl]-2-oxo-ethyl}-5-(5-methoxy-pyridin-2-ylmethoxy)-2H-pyridazin-3-one], the IC50 amounted to 20 nM. The compound `CNCc1ccc(C(=O)Cn2ncc(OCc3ccc(Cl)cn3)cc2=O)c(C)c1` [Example 7.6, 5-(5-Chloro-pyridin-2-ylmethoxy)-2-[2-(2-methyl-4-methylaminomethyl-phenyl)-2-oxo-ethyl]-2H-pyridazin-3-one] showed an IC50 of 28 nM. Consider `Cc1cc(CN2CC[C@H](O)C2)ccc1C(=O)Cn1ncc(OCc2ccccc2)cc1=O` [Example 5.5], for which the concentration for half-maximal inhibition (IC50) came to 11 nM. Take `Cc1cc(CN2CCC[C@H](O)C2)ccc1C(=O)Cn1ccc(OCc2ccc(Br)cn2)cc1=O` [Example 4.4, (S)-4-(5-Bromo-pyridin-2-ylmethoxy)-1-{2-[4-(3-hydroxy-piperidin-1-ylmethyl)-2-methyl-phenyl]-2-oxo-ethyl}-1H-pyridin-2-one]: the IC50 stood at 18 nM. This IC50 is about 1.6-fold higher than that of the compound before. As for `Cc1cc(CN2CCC[C@H](O)C2)ccc1C(=O)Cn1ncc(OCc2ccccc2)cc1=O` [Example 5.13, (S)-5-Benzyloxy-2-{2-[4-(3-hydroxy-piperidin-1-ylmethyl)-2-methyl-phenyl]-2-oxo-ethyl}-2H-pyridazin-3-one], the IC50 turned out to be 13 nM.

Take `Cc1cc(CN2CCN(C)CC2)ccc1C(=O)Cn1ncc(OCc2ccc(Cl)cn2)cc1=O` [Example 7.4]: the IC50 stood at 67 nM.

Compound `Cc1cc(CN(C)C)ccc1C(=O)Cn1ncc(OCc2ccc(Cl)cn2)cc1=O` [Example 7.16, 5-(5-Chloro-pyridin-2-ylmethoxy)-2-[2-(4-dimethylaminomethyl-2-methyl-phenyl)-2-oxo-ethyl]-2H-pyridazin-3-one] gave an IC50 of 24 nM. With `Cc1cc(CN2CCC[C@@H](O)C2)ccc1C(=O)Cn1ccc(OCc2ccc(Br)cn2)cc1=O` [Example 4.12, (R)-4-(5-Bromo-pyridin-2-ylmethoxy)-1-{2-[4-(3-hydroxy-piperidin-1-ylmethyl)-2-methyl-phenyl]-2-oxo-ethyl}-1H-pyridin-2-one], the IC50 came to 23 nM. The IC50 values of the last two compounds are within 1.5-fold of each other.

`Cc1cc(CN(C)C)ccc1C(=O)Cn1ccc(OCc2ccc(F)cn2)cc1=O` [Example 2.5] returned an IC50 of 70 nM.

The compound `Cc1cc(CN2CCCCC2)ccc1C(=O)Cn1ccc(OCc2ccccc2)cc1=O` [Example 1.9] had an IC50 of 11 nM.

`Cc1cc(CN2CCOC(C)C2)ccc1C(=O)Cn1ncc(OCc2ccccc2)cc1=O` (centres unmarked) [Example 5.9, 5-Benzyloxy-2-{2-[2-methyl-4-(2-methyl-morpholin-4-ylmethyl)-phenyl]-2-oxo-ethyl}-2H-pyridazin-3-one] gave an IC50 of 30 nM. The same measure, in the same setting: to `Cc1cc(CN2CCCC[C@@H]2CO)ccc1C(=O)Cn1ncc(OCc2ccccc2)cc1=O` [Example 5.12, (R)-5-Benzyloxy-2-{2-[4-(2-hydroxymethyl-piperidin-1-ylmethyl)-2-methyl-phenyl]-2-oxo-ethyl}-2H-pyridazin-3-one] belongs 13 nM; to `Cc1cc(CN2CCCC2)ccc1C(=O)Cn1ncc(OCc2ccc(F)cn2)cc1=O` [Example 6.1, 5-(5-Fluoro-pyridin-2-ylmethoxy)-2-[2-(2-methyl-4-pyrrolidin-1-ylmethyl-phenyl)-2-oxo-ethyl]-2H-pyridazin-3-one], 38 nM. As for `CCNCc1ccc(C(=O)Cn2ncc(OCc3ccc(OC)cn3)cc2=O)c(C)c1` [Example 9.5, 2-[2-(4-Ethylaminomethyl-2-methyl-phenyl)-2-oxo-ethyl]-5-(5-methoxy-pyridin-2-ylmethoxy)-2H-pyridazin-3-one], the IC50 amounted to 24 nM. This IC50 is about 1.6-fold lower than that of the compound before. `Cc1cc(CN2CC[C@@H](O)C2)ccc1C(=O)Cn1ncc(OCc2ccc(Cl)cn2)cc1=O` [Example 7.9] gave an IC50 of 32 nM. Turning to `Cc1cc(CN2CCC(CO)CC2)ccc1C(=O)Cn1ccc(OCc2ccc(Cl)cn2)cc1=O` [Example 3.12], the IC50 was 34 nM. Compound `Cc1cc(CNC(C)C)ccc1C(=O)Cn1ccc(OCc2ccc(Br)cn2)cc1=O` [Example 4.15, 4-(5-Bromo-pyridin-2-ylmethoxy)-1-{2-[4-(isopropylamino-methyl)-2-methyl-phenyl]-2-oxo-ethyl}-1H-pyridin-2-one] had an IC50 of 18 nM.

Regarding `CCNCc1ccc(C(=O)Cn2ccc(OCc3ccccc3)cc2=O)c(C)c1` [Example 1.12, 4-Benzyloxy-1-[2-(4-ethylaminomethyl-2-methyl-phenyl)-2-oxo-ethyl]-1H-pyridin-2-one], the IC50 came to 21 nM. Still for that read-out and setting: in the case of `Cc1cc(CN2CCC[C@H]2CO)ccc1C(=O)Cn1ccc(OCc2ccc(Br)cn2)cc1=O` [Example 4.5, (S)-4-(5-Bromo-pyridin-2-ylmethoxy)-1-{2-[4-(2-hydroxymethyl-pyrrolidin-1-ylmethyl)-2-methyl-phenyl]-2-oxo-ethyl}-1H-pyridin-2-one] it was 13 nM; in that of `CNCc1ccc(C(=O)Cn2ccc(OCc3ccc(Cl)cn3)cc2=O)c(C)c1` [Example 3.10], 37 nM. The compound `Cc1cc(CN2CC3CC(C2)C3O)ccc1C(=O)Cn1ccc(OCc2ccc(Cl)cn2)cc1=O` (centres unmarked) [Example 3.16] registered an IC50 of 19 nM. Still for that read-out and setting: in the case of `COc1ccc(COc2ccn(CC(=O)c3ccc(CN4CCC(O)CC4)cc3C)c(=O)c2)nc1` [Example 11.1, 1-{2-[4-(4-Hydroxy-piperidin-1-ylmethyl)-2-methyl-phenyl]-2-oxo-ethyl}-4-(5-methoxy-pyridin-2-ylmethoxy)-1H-pyridin-2-one] it was 53 nM. On to `Cc1cc(CN2CCCC2)ccc1C(=O)Cn1ncc(OCc2ccc(Cl)cn2)cc1=O` [Example 7.15, 5-(5-Chloro-pyridin-2-ylmethoxy)-2-[2-(2-methyl-4-pyrrolidin-1-ylmethyl-phenyl)-2-oxo-ethyl]-2H-pyridazin-3-one], for which the IC50 is 19 nM. As for `Cc1cc(CN2CCOCC2)ccc1C(=O)Cn1ccc(OCc2ccc(Br)cn2)cc1=O` [Example 4.11], the IC50 was determined as 59 nM. This IC50 is about 3.1-fold higher than that of the compound before. For `CCNCc1ccc(C(=O)Cn2ncc(OCc3ccc(Cl)cn3)cc2=O)c(C)c1` [Example 7.7, 5-(5-Chloro-pyridin-2-ylmethoxy)-2-[2-(4-ethylaminomethyl-2-methyl-phenyl)-2-oxo-ethyl]-2H-pyridazin-3-one], the IC50 was 18 nM. Regarding `Cc1cc(CN2CCC[C@@H](O)C2)ccc1C(=O)Cn1ncc(OCc2ccccc2)cc1=O` [Example 5.1, (R)-5-Benzyloxy-2-{2-[4-(3-hydroxy-piperidin-1-ylmethyl)-2-methyl-phenyl]-2-oxo-ethyl}-2H-pyridazin-3-one], the IC50 amounted to 14 nM. The same measure, in the same setting: in the case of `Cc1cc(CN2CCCCC2)ccc1C(=O)Cn1ccc(OCc2ccc(Br)cn2)cc1=O` [Example 4.16] it was 12 nM. On the same count and under the same terms, to `Cc1cc(CN2CC[C@H](O)C2)ccc1C(=O)Cn1ncc(OCc2ccc(F)cn2)cc1=O` [Example 6.6] belongs 49 nM. `Cc1cc(CN2CCC[C@H]2CO)ccc1C(=O)Cn1ccc(OCc2ccc(Cl)cn2)cc1=O` [Example 3.2, 4-(5-Chloro-pyridin-2-ylmethoxy)-1-{2-[4-((S)-2-hydroxymethyl-pyrrolidin-1-ylmethyl)-2-methyl-phenyl]-2-oxo-ethyl}-1H-pyridin-2-one] came in with an IC50 of 36 nM. In the case of `Cc1cc(CN2CC[C@@H](O)C2)ccc1C(=O)Cn1ccc(OCc2ccc(Br)cn2)cc1=O` [Example 4.9, (R)-4-(5-Bromo-pyridin-2-ylmethoxy)-1-{2-[4-(3-hydroxy-pyrrolidin-1-ylmethyl)-2-methyl-phenyl]-2-oxo-ethyl}-1H-pyridin-2-one], the IC50 was 20 nM.

The compound `CNCc1ccc(C(=O)Cn2ccc(OCc3ccc(Br)cn3)cc2=O)c(C)c1` [Example 4.13, 4-(5-Bromo-pyridin-2-ylmethoxy)-1-[2-(2-methyl-4-methylaminomethyl-phenyl)-2-oxo-ethyl]-1H-pyridin-2-one] came in with an IC50 of 26 nM. Still for that read-out and setting: in the case of `Cc1cc(CN2CCC(CO)CC2)ccc1C(=O)Cn1ncc(OCc2ccc(Cl)cn2)cc1=O` [Example 7.8] it was 26 nM; in that of `Cc1cc(CN2CCC(CO)CC2)ccc1C(=O)Cn1ccc(OCc2ccc(Br)cn2)cc1=O` [Example 4.3, 4-(5-Bromo-pyridin-2-ylmethoxy)-1-{2-[4-(4-hydroxymethyl-piperidin-1-ylmethyl)-2-methyl-phenyl]-2-oxo-ethyl}-1H-pyridin-2-one], 13 nM; in that of `CCN(C)Cc1ccc(C(=O)Cn2ccc(OCc3ccc(Br)cn3)cc2=O)c(C)c1` [Example 4.18, 4-(5-Bromo-pyridin-2-ylmethoxy)-1-(2-{4-[(ethyl-methyl-amino)-methyl]-2-methyl-phenyl}-2-oxo-ethyl)-1H-pyridin-2-one], 19 nM. Still for that read-out and setting: in the case of `CCNCc1ccc(C(=O)Cn2ncc(OCc3ccccc3)cc2=O)c(C)c1` [Example 5.6, 5-Benzyloxy-2-[2-(4-ethylaminomethyl-2-methyl-phenyl)-2-oxo-ethyl]-2H-pyridazin-3-one] it was 10 nM. Still for that read-out and setting: to `COc1ccc(COc2cnn(CC(=O)c3ccc(CN4CCCC4)cc3C)c(=O)c2)nc1` [Example 9.3, 5-(5-Methoxy-pyridin-2-ylmethoxy)-2-[2-(2-methyl-4-pyrrolidin-1-ylmethyl-phenyl)-2-oxo-ethyl]-2H-pyridazin-3-one] belongs 25 nM. In the case of `CCNCc1ccc(C(=O)Cn2ccc(OCc3ccc(F)cn3)cc2=O)c(C)c1` [Example 2.6], the IC50 is 134 nM.
